Source: ChEMBL document CHEMBL4507259 (2021)

Columns and labels:
[1] = test system: Phosphatidylinositol 4,5-bisphosphate 3-kinase catalytic subunit alpha isoform (Homo sapiens), P42336 [E545A]; details: Compound concentration 1000.0 nM
[2] = molecular target: Dual specificity tyrosine-phosphorylation-regulated kinase 2 (Homo sapiens) (UniProt Q92630); details: Compound concentration 1000.0 nM
[3] = molecular target: Platelet-derived growth factor receptor beta (Homo sapiens) (UniProt P09619); details: Compound concentration 1000.0 nM
[4] = molecular target: Serine/threonine-protein kinase N2 (Homo sapiens) (UniProt Q16513); details: Compound concentration 1000.0 nM
[5] = molecular target: T1, 5-hydroxytryptamine receptor 2C (Homo sapiens) (UniProt P28335); assay: 5-HT2C (h) CEREP ligand profiling; details: filed as antagonist, Compound concentration 10.0 uM
T1 sequence (whole entry): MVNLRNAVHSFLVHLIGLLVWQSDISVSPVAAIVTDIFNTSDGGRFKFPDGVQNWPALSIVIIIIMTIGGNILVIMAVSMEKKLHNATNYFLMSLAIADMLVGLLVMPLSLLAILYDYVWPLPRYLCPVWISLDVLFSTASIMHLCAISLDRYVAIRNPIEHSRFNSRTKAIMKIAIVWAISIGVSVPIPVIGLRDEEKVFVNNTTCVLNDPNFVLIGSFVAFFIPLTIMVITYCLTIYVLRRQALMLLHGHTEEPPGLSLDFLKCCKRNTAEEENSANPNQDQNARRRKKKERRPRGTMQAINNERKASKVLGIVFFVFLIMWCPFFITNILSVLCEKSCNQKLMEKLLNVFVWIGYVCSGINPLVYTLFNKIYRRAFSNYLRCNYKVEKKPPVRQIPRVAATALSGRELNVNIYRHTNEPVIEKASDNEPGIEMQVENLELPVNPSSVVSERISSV

[6] = test system: Mast/stem cell growth factor receptor Kit (Homo sapiens), P10721 [A829P]; details: Compound concentration 1000.0 nM
[7] = molecular target: Cyclin-dependent kinase-like 1 (Homo sapiens) (UniProt Q00532); details: Compound concentration 1000.0 nM
[8] = molecular target: Mast/stem cell growth factor receptor Kit (Homo sapiens) (UniProt P10721); details: Compound concentration 1000.0 nM
[9] = molecular target: Serine/threonine-protein kinase/endoribonuclease IRE1 (Homo sapiens) (UniProt O75460); details: Compound concentration 1000.0 nM
[10] = molecular target: T2, Alpha-1B adrenergic receptor (Homo sapiens) (UniProt P35368); assay: alpha 1B (h) CEREP ligand profiling; details: filed as antagonist, Compound concentration 10.0 uM
T2 sequence (whole entry): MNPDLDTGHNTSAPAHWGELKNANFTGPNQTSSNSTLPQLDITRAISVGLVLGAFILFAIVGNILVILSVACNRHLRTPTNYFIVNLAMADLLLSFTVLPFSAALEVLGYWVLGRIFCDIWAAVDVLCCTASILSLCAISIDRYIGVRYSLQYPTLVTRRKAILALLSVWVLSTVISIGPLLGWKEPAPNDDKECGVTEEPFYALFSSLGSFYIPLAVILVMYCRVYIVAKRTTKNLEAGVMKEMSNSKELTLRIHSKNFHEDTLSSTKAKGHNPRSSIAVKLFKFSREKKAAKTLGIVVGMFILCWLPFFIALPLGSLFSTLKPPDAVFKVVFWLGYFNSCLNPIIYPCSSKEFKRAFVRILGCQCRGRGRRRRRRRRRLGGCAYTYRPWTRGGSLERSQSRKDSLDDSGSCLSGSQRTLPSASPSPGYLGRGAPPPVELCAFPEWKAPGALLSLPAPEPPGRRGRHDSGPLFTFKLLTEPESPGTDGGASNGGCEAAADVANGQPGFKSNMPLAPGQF

[11] = molecular target: Serine/threonine-protein kinase ICK (Homo sapiens) (UniProt Q9UPZ9); details: Compound concentration 1000.0 nM
[12] = molecular target: TGF-beta receptor type-1 (Homo sapiens) (UniProt P36897); details: Compound concentration 1000.0 nM
TGF-beta receptor type-1 (Homo sapiens), sequence (P36897 whole entry): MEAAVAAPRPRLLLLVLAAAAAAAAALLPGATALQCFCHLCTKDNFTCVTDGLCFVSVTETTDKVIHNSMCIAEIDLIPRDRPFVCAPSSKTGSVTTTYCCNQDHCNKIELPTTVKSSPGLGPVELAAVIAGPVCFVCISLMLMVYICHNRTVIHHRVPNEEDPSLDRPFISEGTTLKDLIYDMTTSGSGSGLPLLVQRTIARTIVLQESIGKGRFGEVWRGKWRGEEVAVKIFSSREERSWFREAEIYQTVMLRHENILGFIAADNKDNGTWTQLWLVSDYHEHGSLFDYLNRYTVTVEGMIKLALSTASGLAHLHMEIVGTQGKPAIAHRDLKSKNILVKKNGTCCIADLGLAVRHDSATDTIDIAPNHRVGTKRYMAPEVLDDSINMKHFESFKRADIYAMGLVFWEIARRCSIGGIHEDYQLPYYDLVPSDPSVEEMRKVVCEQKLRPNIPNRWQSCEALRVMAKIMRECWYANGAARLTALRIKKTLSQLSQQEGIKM

[13] = test system: eIF-2-alpha kinase GCN2 (Homo sapiens), Q9P2K8 [S808G]; details: Compound concentration 1000.0 nM
[14] = test system: Phosphatidylinositol 4,5-bisphosphate 3-kinase catalytic subunit alpha isoform (Homo sapiens), P42336 [I800L]; details: Compound concentration 1000.0 nM
Phosphatidylinositol 4,5-bisphosphate 3-kinase catalytic subunit alpha isoform (Homo sapiens), P42336 [I800L], sequence (P42336 whole entry I800L, canonical isoform): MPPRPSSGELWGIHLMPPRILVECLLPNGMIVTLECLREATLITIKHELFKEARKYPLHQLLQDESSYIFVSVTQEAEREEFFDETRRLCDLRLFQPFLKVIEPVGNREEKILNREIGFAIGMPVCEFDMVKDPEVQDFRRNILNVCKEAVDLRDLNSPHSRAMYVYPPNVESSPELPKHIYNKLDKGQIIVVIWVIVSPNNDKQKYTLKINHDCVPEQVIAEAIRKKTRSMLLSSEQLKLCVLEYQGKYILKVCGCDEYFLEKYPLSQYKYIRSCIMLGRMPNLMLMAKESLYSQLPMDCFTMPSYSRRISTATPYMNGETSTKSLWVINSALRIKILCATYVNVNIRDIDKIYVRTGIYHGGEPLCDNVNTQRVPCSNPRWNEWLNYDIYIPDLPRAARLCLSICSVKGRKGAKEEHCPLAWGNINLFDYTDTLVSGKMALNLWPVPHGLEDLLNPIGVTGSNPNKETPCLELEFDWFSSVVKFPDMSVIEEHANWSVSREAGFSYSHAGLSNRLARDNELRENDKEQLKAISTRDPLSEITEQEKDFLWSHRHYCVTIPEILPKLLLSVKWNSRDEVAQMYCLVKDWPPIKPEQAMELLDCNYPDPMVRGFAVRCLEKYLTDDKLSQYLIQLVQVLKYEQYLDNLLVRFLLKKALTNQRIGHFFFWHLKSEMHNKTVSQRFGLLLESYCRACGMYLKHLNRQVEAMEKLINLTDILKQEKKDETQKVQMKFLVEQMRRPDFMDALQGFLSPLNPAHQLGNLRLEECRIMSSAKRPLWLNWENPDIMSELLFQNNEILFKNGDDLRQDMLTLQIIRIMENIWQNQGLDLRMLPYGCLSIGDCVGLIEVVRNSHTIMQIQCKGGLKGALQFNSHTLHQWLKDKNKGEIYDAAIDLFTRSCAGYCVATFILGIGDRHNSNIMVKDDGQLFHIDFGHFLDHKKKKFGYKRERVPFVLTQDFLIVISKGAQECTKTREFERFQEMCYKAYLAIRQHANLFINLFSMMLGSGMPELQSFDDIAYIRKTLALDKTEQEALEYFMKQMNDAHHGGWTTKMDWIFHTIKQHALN

[15] = molecular target: Death-associated protein kinase 1 (Homo sapiens) (UniProt P53355); details: Compound concentration 1000.0 nM
[16] = molecular target: cGMP-dependent protein kinase 2 (Homo sapiens) (UniProt Q13237); details: Compound concentration 1000.0 nM
[17] = molecular target: Phosphatidylinositol 4,5-bisphosphate 3-kinase catalytic subunit alpha isoform (Homo sapiens) (UniProt P42336); details: Compound concentration 1000.0 nM
Phosphatidylinositol 4,5-bisphosphate 3-kinase catalytic subunit alpha isoform (Homo sapiens), sequence (P42336 whole entry, canonical isoform): as the sequence (P42336 whole entry I800L, canonical isoform) above, with L800I counted along it

[18] = molecular target: RAC-beta serine/threonine-protein kinase (Homo sapiens) (UniProt P31751); details: Compound concentration 1000.0 nM
[19] = molecular target: Mitogen-activated protein kinase kinase kinase 5 (Homo sapiens) (UniProt Q99683); details: Compound concentration 1000.0 nM
Mitogen-activated protein kinase kinase kinase 5 (Homo sapiens), sequence (Q99683 whole entry): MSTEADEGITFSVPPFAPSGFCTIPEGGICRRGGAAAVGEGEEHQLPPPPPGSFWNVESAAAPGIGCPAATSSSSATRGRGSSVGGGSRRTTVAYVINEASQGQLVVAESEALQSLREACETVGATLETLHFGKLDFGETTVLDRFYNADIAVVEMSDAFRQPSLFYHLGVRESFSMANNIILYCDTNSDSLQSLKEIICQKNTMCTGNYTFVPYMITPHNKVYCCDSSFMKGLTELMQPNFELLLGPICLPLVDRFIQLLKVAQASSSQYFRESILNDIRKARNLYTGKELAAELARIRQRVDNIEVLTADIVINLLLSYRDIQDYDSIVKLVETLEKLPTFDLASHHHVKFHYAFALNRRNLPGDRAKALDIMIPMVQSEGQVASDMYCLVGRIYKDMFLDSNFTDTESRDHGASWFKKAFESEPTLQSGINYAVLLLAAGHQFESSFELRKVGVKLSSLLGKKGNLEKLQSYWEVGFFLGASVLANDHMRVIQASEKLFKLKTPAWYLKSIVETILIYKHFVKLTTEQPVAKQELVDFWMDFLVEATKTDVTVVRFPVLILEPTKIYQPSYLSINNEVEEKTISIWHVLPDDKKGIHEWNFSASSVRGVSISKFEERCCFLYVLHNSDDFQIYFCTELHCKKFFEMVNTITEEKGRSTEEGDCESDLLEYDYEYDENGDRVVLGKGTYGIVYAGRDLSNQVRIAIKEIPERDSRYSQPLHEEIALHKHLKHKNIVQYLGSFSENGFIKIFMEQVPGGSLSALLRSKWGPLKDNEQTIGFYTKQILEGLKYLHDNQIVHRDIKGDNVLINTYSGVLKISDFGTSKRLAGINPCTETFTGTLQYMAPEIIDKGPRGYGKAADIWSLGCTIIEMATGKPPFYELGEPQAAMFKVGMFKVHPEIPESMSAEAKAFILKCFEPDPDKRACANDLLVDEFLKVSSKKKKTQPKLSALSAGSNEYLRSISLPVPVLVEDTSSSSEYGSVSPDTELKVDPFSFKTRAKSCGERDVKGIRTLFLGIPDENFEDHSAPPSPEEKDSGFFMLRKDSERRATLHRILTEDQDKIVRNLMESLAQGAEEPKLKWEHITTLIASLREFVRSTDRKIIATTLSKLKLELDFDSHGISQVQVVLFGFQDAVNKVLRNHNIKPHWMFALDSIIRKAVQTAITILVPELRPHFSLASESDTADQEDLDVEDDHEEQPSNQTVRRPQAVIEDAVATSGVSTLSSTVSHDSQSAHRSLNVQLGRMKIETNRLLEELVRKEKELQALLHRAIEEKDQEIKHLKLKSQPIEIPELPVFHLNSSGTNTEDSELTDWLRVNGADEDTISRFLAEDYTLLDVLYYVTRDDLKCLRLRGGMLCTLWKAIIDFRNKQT

[20] = molecular target: Dual specificity mitogen-activated protein kinase kinase 7 (Homo sapiens) (UniProt O14733); details: Compound concentration 1000.0 nM
[21] = molecular target: D(1A) dopamine receptor (Homo sapiens) (UniProt P21728); details: Compound concentration 10.0 uM
[22] = molecular target: Serine/threonine-protein kinase B-raf (Homo sapiens) (UniProt P15056); details: Compound concentration 1000.0 nM
[23] = molecular target: Phosphatidylinositol 4,5-bisphosphate 3-kinase catalytic subunit gamma isoform (Homo sapiens) (UniProt P48736); details: Compound concentration 1000.0 nM
Phosphatidylinositol 4,5-bisphosphate 3-kinase catalytic subunit gamma isoform (Homo sapiens), sequence (P48736 whole entry, looked up, canonical isoform): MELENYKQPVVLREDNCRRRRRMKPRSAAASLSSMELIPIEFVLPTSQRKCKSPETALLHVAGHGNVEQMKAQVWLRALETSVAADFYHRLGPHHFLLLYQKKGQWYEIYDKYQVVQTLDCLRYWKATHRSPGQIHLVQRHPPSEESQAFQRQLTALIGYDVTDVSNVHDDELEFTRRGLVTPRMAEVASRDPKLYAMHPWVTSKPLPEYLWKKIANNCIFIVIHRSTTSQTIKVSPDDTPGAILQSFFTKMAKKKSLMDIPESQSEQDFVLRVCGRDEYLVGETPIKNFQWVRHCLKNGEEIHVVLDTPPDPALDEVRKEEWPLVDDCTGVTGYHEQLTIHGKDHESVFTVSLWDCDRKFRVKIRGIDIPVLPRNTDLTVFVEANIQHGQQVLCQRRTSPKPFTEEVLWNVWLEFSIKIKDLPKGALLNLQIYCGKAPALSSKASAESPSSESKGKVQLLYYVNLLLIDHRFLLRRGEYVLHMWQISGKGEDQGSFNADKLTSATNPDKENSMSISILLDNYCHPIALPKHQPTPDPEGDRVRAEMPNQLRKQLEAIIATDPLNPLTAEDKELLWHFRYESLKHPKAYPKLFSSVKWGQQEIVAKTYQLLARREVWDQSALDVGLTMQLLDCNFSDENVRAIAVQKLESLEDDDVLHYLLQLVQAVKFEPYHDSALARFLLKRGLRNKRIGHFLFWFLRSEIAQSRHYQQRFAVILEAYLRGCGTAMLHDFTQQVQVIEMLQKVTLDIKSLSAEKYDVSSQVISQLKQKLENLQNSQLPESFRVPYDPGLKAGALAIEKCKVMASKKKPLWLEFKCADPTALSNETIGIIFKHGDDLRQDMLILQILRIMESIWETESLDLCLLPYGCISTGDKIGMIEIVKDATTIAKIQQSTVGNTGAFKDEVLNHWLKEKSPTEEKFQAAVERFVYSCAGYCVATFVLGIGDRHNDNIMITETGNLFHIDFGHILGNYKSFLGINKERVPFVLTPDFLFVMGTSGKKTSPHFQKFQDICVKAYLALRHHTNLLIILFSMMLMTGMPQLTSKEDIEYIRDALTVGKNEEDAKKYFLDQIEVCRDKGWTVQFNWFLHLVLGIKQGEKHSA

[24] = molecular target: D(2) dopamine receptor (Homo sapiens) (UniProt P14416); assay: D2S (h) CEREP ligand profiling; details: filed as antagonist, Compound concentration 10.0 uM
[25] = molecular target: Mitogen-activated protein kinase 9 (Homo sapiens) (UniProt P45984); details: Compound concentration 1000.0 nM
[26] = molecular target: Cyclin-G-associated kinase (Homo sapiens) (UniProt O14976); details: Compound concentration 1000.0 nM
[27] = molecular target: BMP-2-inducible protein kinase (Homo sapiens) (UniProt Q9NSY1); details: Compound concentration 1000.0 nM
[28] = molecular target: Sigma non-opioid intracellular receptor 1 (Homo sapiens) (UniProt Q99720); assay: sigma (non-selective) (h) CEREP ligand profiling; details: filed as agonist, Compound concentration 10.0 uM
[29] = molecular target: Serine/threonine-protein kinase PAK 4 (Homo sapiens) (UniProt O96013); details: Compound concentration 1000.0 nM
[30] = molecular target: Proto-oncogene tyrosine-protein kinase ROS (Homo sapiens) (UniProt P08922); details: Compound concentration 1000.0 nM
[31] = molecular target: Transient receptor potential cation channel subfamily M member 6 (Homo sapiens) (UniProt Q9BX84); details: Compound concentration 1000.0 nM

SMILES | residual activity [1] [%] | residual activity [2] [%] | residual activity [3] [%] | residual activity [4] [%] | inhibition [5] [%] | residual activity [6] [%] | residual activity [7] [%] | residual activity [8] [%] | residual activity [9] [%] | inhibition [10] [%] | residual activity [11] [%] | residual activity [12] [%] | residual activity [13] [%] | residual activity [14] [%] | residual activity [15] [%] | residual activity [16] [%] | residual activity [17] [%] | residual activity [18] [%] | residual activity [19] [%] | residual activity [20] [%] | other results
CNC(=O)Nc1ccc2c(c1)[C@@]1(CC2)OC(=O)N(CC(=O)N(Cc2ccc(F)cc2)[C@@H](C)C(F)(F)F)C1=O [A-486] | 97 | 92 | 87 | 100 | -7 | 100 | 91 | 89 | 100 | -6 | 67 | 89 | 100 | 63 | 100 | 85 | 28 | 99 | 100 | 85 | inhibition [21]: 0.29%; residual activity [22]: 100%; residual activity [23]: 64%; inhibition [24]: -3%; residual activity [25]: 69%; residual activity [26]: 100%; residual activity [27]: 100%; inhibition [28]: 7%; residual activity [29]: 95%; residual activity [30]: 87%; residual activity [31]: 98%
CNC(=O)Nc1ccc2c(c1)CC[C@@]21OC(=O)N(CC(=O)N(Cc2ccc(F)cc2)[C@@H](C)C(F)(F)F)C1=O [A-485] | 91 | 88 | 100 | 97 | -2 | 79 | 86 | 97 | 56 | 4 | 72 | 98 | 92 | 83 | 96 | 86 | 83 | 80 | 94 | 97 | inhibition [21]: 9.97%; residual activity [22]: 93%; residual activity [23]: 95%; inhibition [24]: 13%; residual activity [25]: 70%; residual activity [26]: 100%; residual activity [27]: 98%; inhibition [28]: -3%; residual activity [29]: 89%; residual activity [30]: 80%; residual activity [31]: 100%
